Measured values: patent publication US10081737B2, “Method for producing curing agent of coating and its application on coating” (SHANGHAI YAO HE BIOCHEMICAL TECHNOLOGY CO., LTD., priority 2016, dated 2018)

Legend:
Format in all cases: physicochemical
[1] = Gloss of the polyester powder coating films; conditions: polyester powder coating film containing the named curing agent (compositions of Table 1)
Description: (§1) To verify properties of the product of the invention, APLUS101, APLUS102, HAA and TGIC are individually mixed with the polyester powder and additives. These curing agents are added in amounts of 2-8 wt % of the polyester powder coatings.
(§2) The coatings are tested in the form of films and the tests are carried out in the same conditions.

[2] = Neutral salt-spray tests, 300 h, on coating films; conditions: corrosion of the coating film; cell text wraps over r6-r8 (Slight corrosion / No corrosion)
Description: as §1, §2

[3] = QUV-A tests, 500 h, gloss retention of coating films; conditions: coating film containing the named curing agent
Description: as §1, §2

[4] = Flow and leveling of the powder coatings; conditions: polyester powder coating containing the named curing agent
Description: as §1, §2

[5] = MEK resistance tests, 24 h, gloss loss of coating films; conditions: coating film containing the named curing agent
Description: as §1, §2

[6] = Heat resistance of coating films, 220° C., 15 min; conditions: color difference compared with the color at 200° C., 10 min; less color differences indicate better properties
Description: as §1, §2

Gloss of the films [1]	QUV-A tests, 500 h, gloss retention (%) [3] [%]	Flow and leveling (cm) [4] [cm]	MEK resistance tests, 24 h, gloss loss (%) [5] [%]	Heat resistance, 220° C., 15 min [6]	Compound	Neutral salt-spray tests, 300 h [2]
87.6	75.8	3.8	10.25	0.59	O=c1n(CC2CO2)c(=O)n(CC2CO2)c(=O)n1CC1CO1 (stereo not drawn) [TGIC, 1,3,5-Triglycidyl isocyanurate]	Slight
84.5	72.7	3.1	8.16	1.15	O=C(CCCCC(=O)N(CCO)CCO)N(CCO)CCO [HAA, N,N,N′,N′-Tetrakis (2-hydroxyethyl)adipamide]	Slight
